Patent publication US20210308211A1, “METHOD OF TREATING VIRAL INFECTIONS” (priority 2020, published 2021)
Several values for one entry are separate records, joined by “and”; a condition that tells them apart may be missing. Equal values may be shown once. Non-standard residues stand in square brackets, D forms with d. Residues, ends and D or L forms follow the SMILES beside them. pS = N[C@@H](COP(=O)(O)O)C(=O)O

Legend:
[1] = tested on: MRL/lpr B cells; test: Cellular uptake of fluorescent P140 in MRL/lpr B cells (flow cytometry, confocal); format: cell-based, mouse
Description: FIG. 8. Cellular uptake of fluorescent P140 peptide in 5.4% mannitol or 10% trehalose in MRL/lpr B cells and Raji cells as visualized by flow cytometry. B cells were from 12-14 week-old MRL/lpr mice (primary cells); Raji cells are an established cell line derived in 1963 from B-lymphocyte of a patient with Burkitt's lymphoma.
FIG. 9. Confocal images of B cells of FIG. 10. All confocal images were taken in the same microscopic settings. Rab9 (red) identifies the late endosomal compartment where P140 localizes before homing into lysosomes DAPI (blue) identifies DNA.
For P140 peptide activity, HSC70 binding and endocytosis appear to be important. It is believed that endocytosis must occur through the clathrin route. This implies that peptide+excipient should have a size in the range of 30 to 500 nm in diameter. For example P140+mannitol are in the 100 nm region whereas P140+trehalose are below 10 nm and therefore not effective binding to HSC70. […] B cells were from 12-14 week-old MRL/lpr mice (primary cells); Raji cells are an established cell line derived in 1963 from B-lymphocyte of a patient with Burkitt's lymphoma. […] The confocal images show the late endosomal compartment where P140 localizes before homing into lysosomes; DAPI identifies DNA.

[2] = tested on: C57BL/6 mice; test: DSS-induced colonic inflammation model; format: in vivo, mouse
Description: Normal mice (C57BL/6; 7 week-old; males) have received the P140 peptide ([…], iv route; 10 mice) or saline only (control group; 10 mice) at days −2 and −1. At day 0, dextran sodium sulfate (DSS; 2-3%) was administrated to induce the disease.
Animals were examined every day for body weight loss, stool consistency, diarrhea, and blood in the feces. The animals were sacrificed around day 14 or at any time if they are very sick (loss >25% body weight). Statistics: Mann-Whitney (exact)

[3] = tested on: Balb/c mice; test: 31-day HDM-induced asthma model, airway response to methacholine (Flexivent); format: in vivo, mouse; settings: for Crs / Ers / Rrs: per mouse
Method: The aim of this study was to evaluate the effect of the P140 phosphopeptide administered systemically (intravenously) in a 31-day model of HDM-induced asthma in mice. The P140 phosphopeptide was solubilized in sterile water (Braun) and 10x concentrate sterile saline was added to adjust osmolarity to 300 mosm. Osmolarity was controlled with a micro osmometer (Löser, type 15) and validated (303 mosm). The P140 phosphopeptide was used in vivo at the dose of 4 mg/kg by intravenous (i.v.) routes. Control animals received equivalent volumes (2 ml/kg) of saline (Table 8).
Nine-week-old male Balb/c mice were sensitized by intranasal (i.n.) administration of HDM extract (Stallergenes): 1 μg in 25 μl saline on days 0, 1, 2, 3, 4, and 10 μg on days 14 and 21. Mice were challenged by i.n. administration of HDM (1 μg) and/or saline on days 28, 29 and 30. Mice were treated by i.v. injection (2 ml/kg) of P140 or solvent on day 25 (see FIG. 12).
Airway response to Methacholine (Flexivent®). On day 31, airway responses to PBS then methacholine were assessed using a forced oscillation technique (Flexivent®, SCIREQ, Montreal, Canada) as described (Daubeuf et al, Bioprotocol, 645, 2013). Mice were anesthetized with an intraperitoneal injection of xylasine (Rompun®; 1 mg/kg), followed fifteen minutes later by an intraperitoneal injection of pentobarbital sodium (3.64 mg/Kg). The trachea was exposed and an 18-gauge metal needle was inserted into the trachea. Airways were connected to a computer-controlled small animal ventilator, and quasi-sinusoidally ventilated with a tidal volume of 10 ml/Kg at a frequency of 150 breaths/min and a positive end-expiratory pressure of 2 cm H2O to achieve a mean respiratory volume close to that of spontaneous breathing. After baseline measurement, each mouse was challenged for 10 sec with an aerosol of PBS generated with an in-line nebulizer and administered directly through the ventilator. Then, aerosolized methacholine (MCh) at 50 mg/ml was administered for 10 sec. The effect of methacholine was calculated as the peak response, i.e. the mean of the three maximal values integrated for calculation of airway resistance (R, cm H20·s·mL^−1), elastance (E, cm H20·mL^−1) and compliance (C, mL·cm H20^−1).
All mice were sensitized to HDM on days 0, 1, 2, 3, 4, 14, 21, and challenged either with saline ([…]) or HDM (challenge with allergen). Results are presented as means±SEM. Differences between groups were tested for statistical significance using Student's t test for inflammatory cells and a two-way ANOVA followed by Bonferroni post-test for airway responses.

[4] = tested on: MRL/lpr B cells; settings: cited from earlier work
[5] = chronic asthma, methacholine 50 mg/ml, P140 i.v. 4 mg/kg day 25, p<0.05
[6] = HDM + P140 (HDM-challenged), first unlabelled sub-column (presumably PBS/baseline)
[7] = HDM + P140 (HDM-challenged), second unlabelled sub-column (presumably MCh 50 mg/mL)
[8] = P140, saline-challenged (chronic asthma), first unlabelled sub-column (presumably PBS/baseline)
[9] = P140, saline-challenged (chronic asthma), second unlabelled sub-column (presumably MCh 50 mg/mL)

Structure (SMILES): CC[C@H](C)[C@H](NC(=O)[C@H](Cc1ccccc1)NC(=O)[C@H](C)NC(=O)[C@H](Cc1ccc(O)cc1)NC(=O)CNC(=O)[C@H](CCCNC(=N)N)NC(=O)[C@@H]1CCCN1C(=O)[C@H](CCCCN)NC(=O)CNC(=O)[C@H](COP(=O)(O)O)NC(=O)[C@H](CCCNC(=N)N)NC(=O)[C@H](CCCCN)NC(=O)[C@H](CO)NC(=O)[C@H](Cc1ccc(O)cc1)NC(=O)[C@@H](NC(=O)[C@H](CCSC)NC(=O)[C@H](Cc1c[nH]cn1)NC(=O)[C@@H](NC(=O)[C@@H](N)CCCNC(=N)N)[C@@H](C)CC)C(C)C)C(=O)N[C@@H](CCC(=O)O)C(=O)N[C@@H](Cc1ccc(O)cc1)C(=O)O [Compound P140] (H-RIHMVYSKR[pS]GKPRGYAFIEY-OH; N-terminus and C-terminus assumed)
- Cellular uptake (flow cytometry) ([1]; fluorescent peptide in 10% trehalose compared with 5.4% mannitol, MRL/lpr B cells): Much less cellular uptake
- Entry into B cells (confocal microscopy) ([1]; peptide in trehalose compared with mannitol): enters B cells much less
- DAI ([2]; P140 i.v. days −2 and −1 vs saline, p=0.5386): Little difference
- Colon size ([2]; P140 i.v. days −2 and −1 vs saline, reflects decrease of inflammation, p=0.0011): significant increase
- Body weight ([2]; between the two groups): No difference
- Day at which blood appeared in the feces ([2]; control groups day +6): +8 day
- Airway resistance, elastance or compliance (in words) ([3]; allergen (HDM)-challenged mice, compared to the solvent group): no effect
- Airway resistance, change vs solvent group ([3]; chronic asthma, methacholine 50 mg/ml, P140 i.v. 4 mg/kg day 25, non-significant (n=5)): −42%
- Airway compliance, change vs solvent group [3, 5]: +115%
- Elastance, change vs solvent group [3, 5]: −65%
- Crs [3, 6]: 0.0554 mL/cmH2O and 0.0514 mL/cmH2O and 0.0528 mL/cmH2O and 0.0566 mL/cmH2O and 0.0492 mL/cmH2O and 0.0458 mL/cmH2O and 0.0552 mL/cmH2O and 0.0589 mL/cmH2O
- Ers [3, 6]: 18.0582 cmH2O/mL and 19.4433 cmH2O/mL and 18.9515 cmH2O/mL and 17.6781 cmH2O/mL and 20.3326 cmH2O/mL and 21.8367 cmH2O/mL and 18.1106 cmH2O/mL and 16.9723 cmH2O/mL
- Rrs [3, 6]: 0.6405 cmH2O.s/mL and 0.6092 cmH2O.s/mL and 0.7972 cmH2O.s/mL and 0.5185 cmH2O.s/mL and 0.6804 cmH2O.s/mL and 0.6365 cmH2O.s/mL and 0.4744 cmH2O.s/mL and 0.5456 cmH2O.s/mL
- Crs [3, 7]: 0.0146 mL/cmH2O and 0.0075 mL/cmH2O and 0.0062 mL/cmH2O and 0.0065 mL/cmH2O and 0.0101 mL/cmH2O and 0.0060 mL/cmH2O and 0.0138 mL/cmH2O and 0.0081 mL/cmH2O
- Ers [3, 7]: 79.8018 cmH2O/mL and 148.4985 cmH2O/mL and 188.1151 cmH2O/mL and 219.9720 cmH2O/mL and 125.7688 cmH2O/mL and 173.4582 cmH2O/mL and 72.6033 cmH2O/mL and 131.8035 cmH2O/mL
- Rrs [3, 7]: 5.6421 cmH2O.s/mL and 10.3886 cmH2O.s/mL and 11.9654 cmH2O.s/mL and 10.5419 cmH2O.s/mL and 8.8810 cmH2O.s/mL and 13.0087 cmH2O.s/mL and 7.0705 cmH2O.s/mL and 9.7688 cmH2O.s/mL
- Rrs ([3]; P140, saline-challenged (chronic asthma)): 0.5590 cmH2O.s/mL and 0.8945 cmH2O.s/mL and 0.5926 cmH2O.s/mL and 0.8074 cmH2O.s/mL and 0.4418 cmH2O.s/mL
- Crs [3, 8]: 0.0545 mL/cmH2O and 0.0498 mL/cmH2O and 0.0569 mL/cmH2O and 0.0541 mL/cmH2O and 0.0650 mL/cmH2O
- Ers [3, 8]: 18.3671 cmH2O/mL and 20.0811 cmH2O/mL and 17.5777 cmH2O/mL and 18.4893 cmH2O/mL and 15.3975 cmH2O/mL
- Crs [3, 9]: 0.0304 mL/cmH2O and 0.0132 mL/cmH2O and 0.0380 mL/cmH2O and 0.0238 mL/cmH2O and 0.0370 mL/cmH2O
- Ers [3, 9]: 33.3720 cmH2O/mL and 84.9688 cmH2O/mL and 26.3200 cmH2O/mL and 42.4174 cmH2O/mL and 28.6047 cmH2O/mL
- Rrs [3, 9]: 4.1067 cmH2O.s/mL and 9.4002 cmH2O.s/mL and 2.2229 cmH2O.s/mL and 4.0926 cmH2O.s/mL and 2.1844 cmH2O.s/mL
- Baseline airway resistance, elastance and compliance after PBS inhalation (in words) ([3]; saline-challenged mice, i.v. 4 mg/kg day 25, compared to solvent-treated mice): no effect
- Autophagy markers SQSTM1 and MAP1LC3 ([4]; MRL/lpr B cells after P140 treatment (Page et al., 2011)): accumulation
- Expression of HSPA8 and LAMP-2A ([4]; MRL/lpr B cells after treating mice (Page et al., 2011; Macri et al., in press)): down-regulated
